In patent US20230019491A1, “PYRIMIDINE TBK/IKKe INHIBITOR COMPOUNDS AND USES THEREOF” (Merck Patent GmbH, priority 2017, published 2023):
pIC50: −log10 of the molar value.

What was measured:
TBK1 = target: T1, TBK1 (Homo sapiens, UniProt Q9UHD2); test: TBK biochemical assay; details: 10 point 1:4 dose response, 30 uM top concentration, 90 min at 25° C., LabChip EZ Reader II; read-out: TBK1_IC50
T1 sequence (Q9UHD2 1-729): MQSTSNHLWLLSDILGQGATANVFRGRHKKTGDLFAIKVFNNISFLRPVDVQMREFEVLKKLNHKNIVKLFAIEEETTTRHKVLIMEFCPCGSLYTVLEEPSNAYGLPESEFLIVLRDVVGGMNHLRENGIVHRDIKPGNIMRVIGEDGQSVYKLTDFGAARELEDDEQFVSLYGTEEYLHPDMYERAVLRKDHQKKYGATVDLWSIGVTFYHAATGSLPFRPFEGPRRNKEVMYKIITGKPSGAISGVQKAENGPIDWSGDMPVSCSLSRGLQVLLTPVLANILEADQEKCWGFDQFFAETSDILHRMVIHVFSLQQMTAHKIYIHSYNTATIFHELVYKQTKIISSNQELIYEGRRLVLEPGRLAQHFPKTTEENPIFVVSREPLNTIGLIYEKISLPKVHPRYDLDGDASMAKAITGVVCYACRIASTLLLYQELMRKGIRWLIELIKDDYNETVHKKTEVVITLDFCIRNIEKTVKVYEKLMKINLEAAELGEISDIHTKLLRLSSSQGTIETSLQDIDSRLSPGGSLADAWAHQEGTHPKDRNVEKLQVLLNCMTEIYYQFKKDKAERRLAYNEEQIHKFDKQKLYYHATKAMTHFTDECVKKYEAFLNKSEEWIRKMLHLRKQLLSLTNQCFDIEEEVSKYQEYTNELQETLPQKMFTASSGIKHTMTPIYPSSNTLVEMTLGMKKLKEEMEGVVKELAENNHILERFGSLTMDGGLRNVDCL
Summary of the method: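 Substrate and product were separated and quantified by microfluidic mobility-shift read (LabChip). 10 uM staurosporine served as the full-inhibition control, and the reference compound was tested from 1 uM final.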

IKKε = target: T2, IKKε (Homo sapiens, UniProt Q14164); test: IKKε biochemical assay; details: 10 point 1:4 dose response, 30 uM top concentration, 90 min at 25° C., LabChip EZ Reader II; read-out: IKKε_IC50
T2 sequence (Q14164 1-716): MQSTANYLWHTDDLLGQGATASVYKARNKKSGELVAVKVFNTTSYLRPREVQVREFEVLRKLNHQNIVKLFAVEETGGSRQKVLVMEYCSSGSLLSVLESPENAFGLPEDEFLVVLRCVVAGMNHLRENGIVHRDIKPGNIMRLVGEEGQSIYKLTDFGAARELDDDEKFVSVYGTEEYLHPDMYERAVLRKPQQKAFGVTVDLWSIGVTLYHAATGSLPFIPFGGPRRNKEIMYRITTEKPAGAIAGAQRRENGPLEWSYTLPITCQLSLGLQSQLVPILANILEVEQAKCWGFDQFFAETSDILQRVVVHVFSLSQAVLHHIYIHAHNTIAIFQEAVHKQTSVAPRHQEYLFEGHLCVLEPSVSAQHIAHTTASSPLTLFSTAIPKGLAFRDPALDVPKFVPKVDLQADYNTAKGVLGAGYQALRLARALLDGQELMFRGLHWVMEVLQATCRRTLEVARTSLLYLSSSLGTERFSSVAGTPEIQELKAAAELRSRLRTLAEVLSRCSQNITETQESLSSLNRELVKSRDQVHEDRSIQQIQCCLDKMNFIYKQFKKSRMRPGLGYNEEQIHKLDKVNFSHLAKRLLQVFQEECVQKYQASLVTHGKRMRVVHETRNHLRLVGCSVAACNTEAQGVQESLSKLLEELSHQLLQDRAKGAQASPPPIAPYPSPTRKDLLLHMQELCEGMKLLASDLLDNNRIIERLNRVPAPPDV
Summary of the method: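 Compounds in 1% DMSO final were incubated with IKKε enzyme and substrate at 25° C. for 90 min, then stopped. Substrate and product peaks were resolved by LabChip EZ Reader II mobility-shift read-out. Staurosporine at 10 uM final served as the full-inhibition control.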

Row | pIC50 (TBK1) | pIC50 (IKKε) | Compound
1 | > 7.00 | > 7.00 | COc1nc(Nc2nccc(-c3ccc(OC4CCN(C(=O)CO)CC4(F)F)c(C#N)c3)n2)ccc1N1CCN(C)CC1 (stereo not shown) [Example 99, 2-[[3,3-difluoro-1-(2-hydroxyacetyl)piperidin-4-yl]oxy]-5-(2-[[6-methoxy-5-(4-methylpiperazin-1-yl)pyridin-2-yl]amino]pyrimidin-4-yl)benzonitrile]
2 | > 7.00 | > 7.00 | COc1nc(Nc2nccc(-c3ccc(O[C@H]4CCN(C(=O)CO)CC4(F)F)c(C#N)c3)n2)ccc1N1CCN(C)CC1 [Example 100, 2-[[(4S)-3,3-difluoro-1-(2-hydroxyacetyl)piperidin-4-yl]oxy]-5-(2-[[6-methoxy-5-(4-methylpiperazin-1-yl)pyridin-2-yl]amino]pyrimidin-4-yl)benzonitrile]
3 | > 7.00 | > 7.00 | COc1nc(Nc2nccc(-c3ccc(O[C@@H]4CCN(C(=O)CO)CC4(F)F)c(C#N)c3)n2)ccc1N1CCN(C)CC1 [Example 101, 2-[[(4R)-3,3-difluoro-1-(2-hydroxyacetyl)piperidin-4-yl]oxy]-5-(2-[[6-methoxy-5-(4-methylpiperazin-1-yl)pyridin-2-yl]amino]pyrimidin-4-yl)benzonitrile]
4 | > 7.00 | > 7.00 | COc1nc(Nc2nccc(-c3ccc(OC4CCN(C(=O)[C@@H](C)O)CC4(F)F)c(C#N)c3)n2)ccc1N1CCN(C)[C@@H](C)C1 (stereo partly drawn) [Example 102, 2-[3,3-Difluoro-1-((R)-2-hydroxy-propionyl)-piperidin-4-yloxy]-5-{2-[5-((S)-3,4-dimethyl-piperazin-1-yl)-6-methoxy-pyridin-2-ylamino]-pyrimidin-4-yl}-benzonitrile]
5 | > 7.00 | > 7.00 | COc1nc(Nc2nccc(-c3ccc(OC4CCN(C(=O)[C@@H](C)O)CC4(F)F)c(C#N)c3)n2)ccc1N1CCN(C)[C@H](C)C1 (stereo partly drawn) [Example 103, 2-[3,3-Difluoro-1-((R)-2-hydroxy-propionyl)-piperidin-4-yloxy]-5-{2-[5-((R)-3,4-dimethyl-piperazin-1-yl)-6-methoxy-pyridin-2-ylamino]-pyrimidin-4-yl}-benzonitrile]
6 | > 7.00 | > 7.00 | COc1nc(Nc2nccc(-c3ccc(OC4CCN(C(=O)[C@@H](C)O)CC4(F)F)c(C#N)c3)n2)ccc1N1CCN(C)CC1 (stereo partly drawn) [Example 104, 2-[3,3-Difluoro-1-((R)-2-hydroxy-propionyl)-piperidin-4-yloxy]-5-{2-[6-methoxy-5-(4-methyl-piperazin-1-yl)-pyridin-2-ylamino]-pyrimidin-4-yl}-benzonitrile]
7 | > 7.00 | > 7.00 | COc1nc(Nc2nccc(-c3ccc(OC4CCN(C(=O)[C@H](C)O)CC4(F)F)c(C#N)c3)n2)ccc1N1CCN(C)[C@@H](C)C1 (stereo partly drawn) [Example 105, 2-[3,3-Difluoro-1-((S)-2-hydroxy-propionyl)-piperidin-4-yloxy]-5-{2-[5-((S)-3,4-dimethyl-piperazin-1-yl)-6-methoxy-pyridin-2-ylamino]-pyrimidin-4-yl}-benzonitrile]
8 | > 7.00 | > 7.00 | COc1nc(Nc2nccc(-c3ccc(OC4CCN(C(=O)[C@H](C)O)CC4(F)F)c(C#N)c3)n2)ccc1N1CCN(C)[C@H](C)C1 (stereo partly drawn) [Example 106, 2-[3,3-Difluoro-1-((S)-2-hydroxy-propionyl)-piperidin-4-yloxy]-5-{2-[5-((R)-3,4-dimethyl-piperazin-1-yl)-6-methoxy-pyridin-2-ylamino]-pyrimidin-4-yl}-benzonitrile]
9 | > 7.00 | > 7.00 | COc1nc(Nc2nccc(-c3ccc(OC4CCN(C(=O)[C@H](C)O)CC4(F)F)c(C#N)c3)n2)ccc1N1CCN(C)CC1 (stereo partly drawn) [Example 107, 2-[3,3-Difluoro-1-((S)-2-hydroxy-propionyl)-piperidin-4-yloxy]-5-{2-[6-methoxy-5-(4-methyl-piperazin-1-yl)-pyridin-2-ylamino]-pyrimidin-4-yl}-benzonitrile]
10 | > 7.00 | > 7.00 | COc1nc(Nc2nccc(-c3ccc(OC4CCNCC4(F)F)c(C#N)c3)n2)ccc1N1CCN(C)C[C@H]1C (stereo partly drawn) [Example 108, 2-(3,3-Difluoro-piperidin-4-yloxy)-5-{2-[5-((R)-2,4-dimethyl-piperazin-1-yl)-6-methoxy-pyridin-2-ylamino]-pyrimidin-4-yl}-benzonitrile]
11 | > 7.00 | > 7.00 | COc1nc(Nc2nccc(-c3ccc(OC4CCNCC4(F)F)c(C#N)c3)n2)ccc1N1CCN(C)C[C@@H]1C (stereo partly drawn) [Example 109, 2-(3,3-Difluoro-piperidin-4-yloxy)-5-{2-[5-((S)-2,4-dimethyl-piperazin-1-yl)-6-methoxy-pyridin-2-ylamino]-pyrimidin-4-yl}-benzonitrile]
12 | > 7.00 | > 7.00 | COc1nc(Nc2nccc(-c3ccc(OC4CCN(C(=O)[C@@H](C)O)CC4(F)F)c(C#N)c3)n2)ccc1N1CCN(C)C[C@@H]1C (stereo partly drawn) [Example 111, 2-[3,3-Difluoro-1-((R)-2-hydroxy-propionyl)-piperidin-4-yloxy]-5-{2-[5-((S)-2,4-dimethyl-piperazin-1-yl)-6-methoxy-pyridin-2-ylamino]-pyrimidin-4-yl}-benzonitrile]
13 | > 7.00 | > 7.00 | COc1nc(Nc2nccc(-c3ccc(OC4CCN(C(=O)[C@H](C)O)CC4(F)F)c(C#N)c3)n2)ccc1N1CCN(C)C[C@@H]1C (stereo partly drawn) [Example 113, 2-[3,3-Difluoro-1-((S)-2-hydroxy-propionyl)-piperidin-4-yloxy]-5-{2-[5-((S)-2,4-dimethyl-piperazin-1-yl)-6-methoxy-pyridin-2-ylamino]-pyrimidin-4-yl}-benzonitrile]
14 | > 7.00 | > 7.00 | COc1nc(Nc2nccc(-c3ccc(OC4CCN(C(=O)C(C)(C)O)CC4(F)F)c(C#N)c3)n2)ccc1N1CCN(C)C[C@H]1C (stereo partly drawn) [Example 114, 2-[3,3-Difluoro-1-(2-hydroxy-2-methyl-propionyl)-piperidin-4-yloxy]-5-{2-[5-((R)-2,4-dimethyl-piperazin-1-yl)-6-methoxy-pyridin-2-ylamino]-pyrimidin-4-yl}-benzonitrile]
15 | > 7.00 | > 7.00 | COc1nc(Nc2nccc(-c3ccc(O[C@H]4CCN(C(=O)c5cnn[nH]5)C[C@H]4F)c(C#N)c3)n2)ccc1N1CCN(C2COC2)CC1 [Example 115, 2-[[(3R,4S)-3-fluoro-1-[(1H-1,2,3-triazol-5-yl)carbonyl]piperidin-4-yl]oxy]-5-[2-([6-methoxy-5-[4-(oxetan-3-yl)piperazin-1-yl]pyridin-2-yl]amino)pyrimidin-4-yl]benzonitrile]
16 | > 7.00 | > 7.00 | COc1nc(Nc2nccc(-c3ccc(O[C@H]4CCN(C(=O)[C@H](C)O)C[C@H]4F)c(C#N)c3)n2)ccc1N1CCN(C2COC2)CC1 [Example 116, 2-[(3R,4S)-3-Fluoro-1-((S)-2-hydroxy-propionyl)-piperidin-4-yloxy]-5-{2-[6-methoxy-5-(4-oxetan-3-yl-piperazin-1-yl)-pyridin-2-ylamino]-pyrimidin-4-yl}-benzonitrile]
17 | > 7.00 | > 7.00 | COc1nc(Nc2nccc(-c3ccc(O[C@@H]4CCN(C(=O)[C@@H](C)O)C[C@@H]4F)c(C#N)c3)n2)ccc1N1CCN(C2COC2)CC1 [Example 117, 2-[(3S,4R)-3-Fluoro-1-((R)-2-hydroxy-propionyl)-piperidin-4-yloxy]-5-{2-[6-methoxy-5-(4-oxetan-3-yl-piperazin-1-yl)-pyridin-2-ylamino]-pyrimidin-4-yl}-benzonitrile]
